Structures can show the parent of a compound that is named as a salt.
Assay: Solid-state stability (60° C./closed and 40° C./75% relative humidity open, up to seven days; HPLC purity, XRPD)
Assay type: physicochemical
Experimental: HPLC method for stability and solubility testing is listed below.
• Column: Ascentis® Express C18 4.6*150 mm*2.7 μm • Mobile Phase A: 0.05% trifluoroacetic acid in water • Mobile Phase B: Methanol • Gradient (T/B %): 0/10, 10/100, 13.5/10, 15/10 • Column Temperature: 40° C. • Detector: DAD; 220 nm • Flow rate: 1.0 mL/min • Injection volume: 1 μL • Concentration: 1 mg/mL • Run time: 15 minutes • Diluent: Methanol:Water 9:1 (v/v)
The solid-state stability of Form III of the potassium salt was performed using the following protocol: • (1) A sample of Form III of the potassium salt was placed at 60° C./closed and 40° C./75% relative humidity (open) conditions for up to seven days. At the onset of the test (day 0) and day 7 of the test, the sample was dissolved in a diluent to prepare a 1 mg/mL solution for HPLC purity analysis. The solid sample was analyzed by XRPD to assess the crystal form of each solid at day 7. […] The XRPD data confirmed the physicochemical stability of Form III of the potassium salt under both closed and open conditions. […]

Purity (Area %) 220 nm (0 day): 99.90 Area % | XRPD After 7 Days (40° C./75% RH (open)): Unchanged | Purity (Area %) 220 nm (40° C./75% RH (open), 7 days): 99.90 Area % | Purity (Area %) 220 nm (60° C./closed, 7 days): 99.90 Area % | XRPD After 7 Days (60° C./closed, 7 days): Unchanged
SMILES: CNC(=O)c1ncn2cc(-c3c(F)ccc(NS(=O)(=O)c4cc(Cl)cnc4OC)c3F)ncc12 [Potassium salt Form III, 6-(3-((5-chloro-2-methoxypyridine)-3-sulfonamido)-2,6-difluorophenyl)-N-methylimidazo[1,5-a]pyrazine-1-carboxamide]
physical and chemical stability (both closed (60° C.) and open (40° C./75% RH) conditions for seven days): maintained physical and chemical stability
